Measurements reported in patent publication US20210363110A1, “4-METHYLDIHYDROPYRIMIDINONE COMPOUNDS AND PHARMACEUTICAL USE THEREOF” (Japan Tobacco Inc., priority 2018, published 2021).

Key:
[1] = molecular target: T1, human RORγ (Homo sapiens, UniProt P51449); test: Reporter gene assay for inhibitory effect against RORγ transcriptional activity (GAL4-hRORγ LBD, luciferase, CHO cells); format: cell-based; conditions: pFA/hRORγ + pG5-Luc, 2 days incubation
T1 construct: from Ser253 to Lys518 for human RORγ; expressed in transfected cells; host or cells: CHO cells (transient co-transfection with pG5-Luc)
T1 sequence (P51449 253-518): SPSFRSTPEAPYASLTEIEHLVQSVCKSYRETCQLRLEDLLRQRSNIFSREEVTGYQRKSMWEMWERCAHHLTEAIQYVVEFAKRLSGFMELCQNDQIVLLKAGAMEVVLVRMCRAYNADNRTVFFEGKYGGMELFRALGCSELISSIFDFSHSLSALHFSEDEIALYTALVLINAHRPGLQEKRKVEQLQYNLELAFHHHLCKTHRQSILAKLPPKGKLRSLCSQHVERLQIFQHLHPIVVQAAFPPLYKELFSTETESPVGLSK
Method: (§1) Inhibitory effect against RORγ transcriptional activity was assessed by reporter gene assay for test compounds.
(§2) cDNAs encoding human and mouse RORγ ligand binding domains (LBD) were obtained based on the sequences of human RORγ (Genbank registered number NM_005060.3) and mouse RORγ (Genbank registered number NM_011281.2) (LBD sequences: from Ser253 to Lys518 for human RORγ; from Ile251 to Lys516 for mouse RORγ).
(§3) LBD cDNAs of human and mouse RORγ were inserted into pFA-CMV vector (Agilent Technologies, Inc.), which expresses GAL4-DNA binding domain fusion protein. The resulting plasmids are hereinafter referred to as pFA/hRORγ plasmid and pFA/mRORγ plasmid, respectively. […]
(§4) Cell viability was tested by luminescence method with CellTiter-Glo (Promega). […] Ten minutes after the addition, luminescence was measured for each well with a microplate reader. The luminescence count in the cells treated with 0.2% DMSO alone was defined as 100%, and the cell viability after treatment with the test compound was calculated as a percentage (%-of-control) based on the value of 0.2% DMSO alone. When the cell viability was 70% or less, a test compound was assessed to have cytotoxicity.
(§5) RORγ transcriptional activity was detected as the intracellular luciferase activity using SteadyLite HTS Reporter Gene Assay System (Perkin Elmer). […]

[2] = molecular target: T2, mouse RORγ (Mus musculus, UniProt P51450); test: Reporter gene assay for inhibitory effect against RORγ transcriptional activity (GAL4-mRORγ LBD, luciferase, CHO cells); format: cell-based; conditions: pFA/mRORγ + pG5-Luc, 2 days incubation
T2 construct: from Ile251 to Lys516 for mouse RORγ; expressed in transfected cells; host or cells: CHO cells (transient co-transfection with pG5-Luc)
T2 sequence (P51450 251-516): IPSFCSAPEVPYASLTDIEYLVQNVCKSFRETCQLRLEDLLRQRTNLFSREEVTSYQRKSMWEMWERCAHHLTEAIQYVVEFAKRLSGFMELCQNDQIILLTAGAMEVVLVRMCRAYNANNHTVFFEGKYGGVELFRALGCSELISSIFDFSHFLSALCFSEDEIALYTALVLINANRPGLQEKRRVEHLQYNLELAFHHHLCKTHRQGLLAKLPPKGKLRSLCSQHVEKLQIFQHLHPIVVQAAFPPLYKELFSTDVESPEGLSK
Method: as §1, §2, §3, §4, §5

[3] = Metabolic stability in liver microsomes, rat; format: in vitro ADME; conditions: residual ratio of unreacted substance, 0.2 mg/mL microsomes, NADPH generating system
Method: A test solution was prepared by diluting 10 mM DMSO solution of a test substance with acetonitrile by 100 times.
Human and animal liver microsomes (SEKISUI XENOTECH; Human (H2610), Rat (R1000), Mouse (M1000), Monkey (P2000), Dog (D1000)) were adjusted with potassium phosphate buffer (pH 7.4) to 0.2 mg/mL in the reaction system. Then, 1% of the solution of a test substance prepared was added to the reaction system. Thereto was added an NADPH generating system (prepared according to the method of Non Patent Literature 28), and the metabolic reaction was initiated. At a designated time, 0.1% formic acid-acetonitrile/water (3:1) was added thereto, and the reaction was terminated.
The sample after termination of the reaction was separated by centrifugation (1400 g, 20 min.), and then the supernatant was measured by LC/MS (UPLC-SQD (waters)) to calculate a residual ratio of unreacted substances.

Row | EC50 [1] [nM] | EC50 [2] [nM] | Metabolic stability in liver microsomes at 60 min., Rat [3] [%] | SMILES
1 | 23 | 23 | 103 | CC(C)C1=CN(C23CC(C(=O)O)(C2)C3)C(=O)N[C@@]1(C)c1ccc([C@@H]2C[C@H]2C(C)(C)C)c(Cl)c1 [Compound (1), 3-{(S)-4-[4-((1R,2R)-2-tert-Butyl-cyclopropyl)-3-chloro-phenyl]-5-isopropyl-4-methyl-2-oxo-3,4-dihydro-2H-pyrimidin-1-yl}bicyclo[1.1.1]pentane-1-carboxylic acid]
2 | 14 | 29 | 95 | CC[C@H](C)C1=CN(C23CC(C(=O)O)(C2)C3)C(=O)N[C@@]1(C)c1ccc([C@@H]2C[C@H]2C(C)(C)C)c(Cl)c1 [Compound (2), 3-{(S)-5-((S)-sec-Butyl)-4-[4-((1R,2R)-2-tert-butyl-cyclopropyl)-3-chloro-phenyl]-4-methyl-2-oxo-3,4-dihydro-2H-pyrimidin-1-yl}bicyclo[1.1.1]pentane-1-carboxylic acid]
